Patent US20230338554A1, “GALACTOSYLATED DENDRIMERS FOR TARGETED INTRACELLULAR DELIVERY TO HEPATOCYTES” (The Johns Hopkins University, priority 2020, published 2023)

Legend:
ASGPR = biological target: T1, ASGPR (Homo sapiens, UniProt P07306); conditions: cited from earlier work
T1 sequence (P07306 1-291): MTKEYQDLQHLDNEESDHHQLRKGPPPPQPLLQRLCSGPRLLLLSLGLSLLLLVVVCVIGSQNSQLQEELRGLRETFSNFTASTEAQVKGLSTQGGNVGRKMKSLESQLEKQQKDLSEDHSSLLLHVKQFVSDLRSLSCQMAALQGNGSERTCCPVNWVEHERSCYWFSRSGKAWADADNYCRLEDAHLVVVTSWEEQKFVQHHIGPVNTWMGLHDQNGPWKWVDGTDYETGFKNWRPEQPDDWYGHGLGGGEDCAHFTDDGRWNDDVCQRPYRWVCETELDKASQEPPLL

[1] = test system: severe acetaminophen poisoning; assay: Gal-D4-NAC treatment in mouse model of severe acetaminophen poisoning; format: in vivo, C57BL6 mice
Description: A model of severe acetaminophen poisoning was established through the administration of 700 mg/kg APAP i.p. to C57BL6 mice (FIG. 12A). There was a high mortality rate, with >90% of mice given APAP overdose dying with 72 hours regardless of treatment with free NAC (FIG. 12B). FIG. 12B represents the survival of healthy sham (black) and saline (red), free NAC (green), and Gal-D4-NAC (blue) treated animals as determined by mass reduction below 80% of the initial animal mass. This model replicates the effects of APAP overdose that result in fulminant liver failure and are considered untreatable with the current clinical NAC regiment. Additionally, to mimic delayed treatment due to late arrival at the hospital, animals eight hours after APAP overdose were also treated as opposed to the pre- and co-treatments with nanoparticles that are typically reported in this model. Both dendrimer and free drug treated animals received 100 mg/kg of NAC, which is […] of the dose that would be administered over 24 hours by i.v. infusion in the clinic.
Next liver necrosis and function were assessed through analysis of images from liver sections isolated at time of death and stained for hematoxylin and eosin. […] After receiving an overdose of APAP, liver structure is essentially destroyed. […]

SMILES	monovalent binding affinity to ASGPR (ASGPR)	mice dying ([1]; 700 mg/kg APAP i.p., 72 hours) [%]	liver architecture / liver health ([1]; single i.v. dose 100 mg/kg on a NAC basis)
CC(=O)N[C@H]1C(O)O[C@H](CO)[C@H](O)[C@@H]1O (stereo partly drawn) [N-acetylgalactosamine (GalNAc), N-acetylgalactosamine]	micromolar scale		
CC(=O)N[C@@H](CS)C(=O)O [free NAC, N-acetyl cysteine]		> 90	unable to have any effect on liver health
